For data set [1] the following is noted: 37° C.; cited from earlier work.
In a further data set the test system is atherosclerotic plaques. Put plainly: In vivo pharmacodynamic evaluation in atherosclerosis model (ORO, H&E, Masson staining). The arrangement: species or system ApoE-/- mice. To be noted: p.o., 4 mg/kg once a day, 12 weeks, Model group 51.53%. On the procedure: AS model mice and initial treatment plan: ApoE^-/- mice were fed a high-fat diet for 12 weeks and then randomly divided into 5 groups: Model group (normal saline group); Crude Til group (p.o., 4 mg/kg); Til NCs group (p.o., 4 mg/kg); Lipo@Til NCs group (p.o., 4 mg/kg); FA-Lipo@Til NCs group in Example 3 (p.o., 4 mg/kg). The Control group was replaced by C57BL/6J mice fed with ordinary diet in the same cycle. The drug was administered orally once a day for 12 consecutive weeks, ApoE--mice continued to eat a high-fat diet throughout the treatment, and body weight changes were recorded 2 times a week. After 12 weeks of continuous administration, the mice were fasted but allowed to drink water 12 h before the experiment. Their eyeballs were removed to collect whole blood serum, and then the mice were dissected, their heart was exposed, and a small incision was made in the right atrium, and the whole body was perfused with pre-cooled saline until the outflowing fluid became clear. […]
ORO staining of the entire aorta: fat tissue stained bright red by ORO could interfere with the observation of plaques, such that the fat tissue around the blood vessels needed to be removed with fine forceps under a stereomicroscope. […] After photographing, the images were measured using ImageJ, and the percentage of plaques in the intima area was calculated to correct for differences in body size. […]

Data set [2] can be described thus: Dissolution behavior, dialysis diffusion method. The data set is classed as physicochemical. Conditions: 37° C., dialysis bag 3,500 D, 4 h. On the procedure:
The dissolution behavior of FA-Lipo@Til NCs in Example 3 was measured in different media (water, SGF, and SIF) at 37° C. using the dialysis diffusion method. 1 mL of Til raw material and Til NC preparation (containing 1 mg/mL of Til) were placed in a dialysis bag with a molecular weight cut-off of 3,500 D, which was then placed in 50 mL of dissolution medium and then placed in an oscillator with a frequency of 100 rpm at 37° C. Samples were taken at 1 min, 2 min, 3 min, 5 min, 10 min, 15 min, 30 min, 45 min, 60 min, 90 min, 120 min, 180 min, and 240 min, respectively. After taking the samples, the corresponding volume of medium was supplemented, and the samples were centrifuged (12,000 rpm, 10 min) and determined by HPLC. […] FA-Lipo@Til NCs were released more slowly than Til NCs. At 4 h, approximately 45% (in SGF) and 35% (in SIF) of Til in Lipo@Til NCs and FA-Lipo@Til NCs were released, while the cumulative release from Til NCs exceeded 55% (in SGF) and 65% (in SIF) within 4 h.

The conditions of data set [3]: cited from earlier work.
In a further data set the test system is Caco-2 cell monolayer. Put plainly: Caco-2 cell monolayer transport. The data set is classed as in vitro ADME. To be noted: Til by HPLC on basolateral side, 50 μg to 100 μg Til. On the procedure: The FA-Lipo@Til NCs obtained in Example 3 were tested using a Caco-2 cell culture monolayer model, Caco-2 cells were collected with a cell plating density of 1×10^5 […]. Cells were inoculated on the upper layer of the Transwell plate, 500 μL of diluted cell suspension was added to each well, and 600 μL of blank MEM medium was added to the lower layer, and the plates were placed in an incubator for culture; after 21 days of continuous culture, appropriate cell wells were selected, the upper and lower layers of the Transwell plate were replaced with HBSS balancing solution, and the plates were balanced in the incubator for 30 min. After removing the buffer, different concentrations of FA-Lipo@Til NCs (all diluted to 300 μL with HBSS containing 10% FBS) were added into the well, 100 μL of sample was taken from the lower layer of the Transwell plate at a specific time point, and an equal amount of HBSS buffer was supplemented, and the samples collected at different time points were used to detect the content of Til by HPLC. The cumulative release amount and Papp of the preparation were calculated. […] The transport amount of raw material Til through the monolayer was the lowest, while Til NCs were transported to the basolateral side over time, which was about 3 times that of the former at 4 h. […] FA ligands enhanced the internalization and transport of nanoparticles.

On to acacetin-7-glucoside [Til], for which the “solubility in aqueous media” value in data set [1] was 1.57 µg/mL. Moreover, the “average plaque area of the aorta (ORO staining)” value in the data set on atherosclerotic plaques was “reduced”. Moreover, the “cumulative release of Til in SGF” value in data set [2] (SGF) was “about 4%”. Moreover, the “cumulative release of Til in SIF” value in data set [2] (SIF) is “about 4%”. Also, the absolute oral bioavailability in data set [3] was 1.350±0.710%. Also, the “transport through the Caco-2 cell monolayer” value with Caco-2 cell monolayer was “lowest”.

These data come from patent US20250367227A1, “FOLIC ACID-MODIFIED LIPOSOME-ENCAPSULATED TILIANIN NANOCRYSTAL (FA-Lipo@Til NC), PREPARATION METHOD AND USE THEREOF” (THE 1ST AFFILIATED HOSPITAL OF SHIHEZI UNIVERSITY, priority 2024, published 2025).
